Source: ChEMBL document CHEMBL1129857, “Synthesis, molecular modeling, and biology of the 1-benzyl derivative of APDC-an apparent mGluR6 selective ligand” (Bioorg Med Chem Lett, 1997)

How the values were obtained:
Format in all cases: functional
[1] = molecular target: Metabotropic glutamate receptor 6 (Rattus norvegicus, UniProt P35349); test: Tested for the agonistic activity against Metabotropic glutamate receptor 6
[2] = molecular target: T1, Metabotropic glutamate receptor 5 (Rattus norvegicus, UniProt P31424); test: Tested for the agonistic activity against Metabotropic glutamate receptor 5
[3] = molecular target: T2, Metabotropic glutamate receptor 1 (Rattus norvegicus, UniProt P23385); test: Tested for the agonistic activity against Metabotropic glutamate receptor 1; Not active
[4] = molecular target: T1, Metabotropic glutamate receptor 5; test: Tested for the agonistic activity against Metabotropic glutamate receptor 5; Not active
[5] = molecular target: T3, Metabotropic glutamate receptor 2 (Rattus norvegicus, UniProt P31421); test: Tested for the agonistic activity against Metabotropic glutamate receptor 2; Not active
[6] = molecular target: T3, Metabotropic glutamate receptor 2; test: Tested for the agonistic activity against Metabotropic glutamate receptor 2
[7] = molecular target: T2, Metabotropic glutamate receptor 1; test: Tested for the agonistic activity against Metabotropic glutamate receptor 1

T2 sequence (P23385 whole entry): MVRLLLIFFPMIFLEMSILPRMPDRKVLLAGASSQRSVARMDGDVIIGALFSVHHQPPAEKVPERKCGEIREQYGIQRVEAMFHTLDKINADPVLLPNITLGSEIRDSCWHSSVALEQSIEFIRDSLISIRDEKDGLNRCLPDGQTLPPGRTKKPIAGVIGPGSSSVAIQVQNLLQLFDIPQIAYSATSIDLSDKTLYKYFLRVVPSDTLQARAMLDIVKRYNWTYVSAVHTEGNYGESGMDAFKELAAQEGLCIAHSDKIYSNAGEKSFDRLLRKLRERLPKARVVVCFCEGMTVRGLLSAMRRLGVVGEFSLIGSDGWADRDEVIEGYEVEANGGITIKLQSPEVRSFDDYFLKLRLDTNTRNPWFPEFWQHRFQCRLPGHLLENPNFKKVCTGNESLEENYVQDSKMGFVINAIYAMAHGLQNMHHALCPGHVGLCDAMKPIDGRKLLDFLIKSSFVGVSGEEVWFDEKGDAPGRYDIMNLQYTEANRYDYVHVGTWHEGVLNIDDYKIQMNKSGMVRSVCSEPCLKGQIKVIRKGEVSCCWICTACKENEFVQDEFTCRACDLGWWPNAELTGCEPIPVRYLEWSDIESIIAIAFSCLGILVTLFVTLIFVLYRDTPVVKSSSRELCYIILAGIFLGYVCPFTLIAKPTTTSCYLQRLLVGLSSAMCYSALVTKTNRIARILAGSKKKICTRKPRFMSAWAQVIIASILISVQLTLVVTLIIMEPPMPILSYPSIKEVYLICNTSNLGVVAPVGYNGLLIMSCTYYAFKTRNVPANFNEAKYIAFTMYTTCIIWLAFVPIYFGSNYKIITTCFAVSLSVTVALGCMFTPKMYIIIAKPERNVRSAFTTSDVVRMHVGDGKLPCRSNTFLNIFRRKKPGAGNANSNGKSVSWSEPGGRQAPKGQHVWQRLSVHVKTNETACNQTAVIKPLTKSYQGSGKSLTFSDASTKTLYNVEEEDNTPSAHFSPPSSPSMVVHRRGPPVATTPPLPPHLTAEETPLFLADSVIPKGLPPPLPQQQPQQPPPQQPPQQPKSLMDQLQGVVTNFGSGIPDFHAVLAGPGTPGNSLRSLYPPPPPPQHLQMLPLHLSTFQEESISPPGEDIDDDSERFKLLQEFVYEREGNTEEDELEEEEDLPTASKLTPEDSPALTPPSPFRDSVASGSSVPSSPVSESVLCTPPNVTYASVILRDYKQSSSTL
T1 sequence (P31424 whole entry): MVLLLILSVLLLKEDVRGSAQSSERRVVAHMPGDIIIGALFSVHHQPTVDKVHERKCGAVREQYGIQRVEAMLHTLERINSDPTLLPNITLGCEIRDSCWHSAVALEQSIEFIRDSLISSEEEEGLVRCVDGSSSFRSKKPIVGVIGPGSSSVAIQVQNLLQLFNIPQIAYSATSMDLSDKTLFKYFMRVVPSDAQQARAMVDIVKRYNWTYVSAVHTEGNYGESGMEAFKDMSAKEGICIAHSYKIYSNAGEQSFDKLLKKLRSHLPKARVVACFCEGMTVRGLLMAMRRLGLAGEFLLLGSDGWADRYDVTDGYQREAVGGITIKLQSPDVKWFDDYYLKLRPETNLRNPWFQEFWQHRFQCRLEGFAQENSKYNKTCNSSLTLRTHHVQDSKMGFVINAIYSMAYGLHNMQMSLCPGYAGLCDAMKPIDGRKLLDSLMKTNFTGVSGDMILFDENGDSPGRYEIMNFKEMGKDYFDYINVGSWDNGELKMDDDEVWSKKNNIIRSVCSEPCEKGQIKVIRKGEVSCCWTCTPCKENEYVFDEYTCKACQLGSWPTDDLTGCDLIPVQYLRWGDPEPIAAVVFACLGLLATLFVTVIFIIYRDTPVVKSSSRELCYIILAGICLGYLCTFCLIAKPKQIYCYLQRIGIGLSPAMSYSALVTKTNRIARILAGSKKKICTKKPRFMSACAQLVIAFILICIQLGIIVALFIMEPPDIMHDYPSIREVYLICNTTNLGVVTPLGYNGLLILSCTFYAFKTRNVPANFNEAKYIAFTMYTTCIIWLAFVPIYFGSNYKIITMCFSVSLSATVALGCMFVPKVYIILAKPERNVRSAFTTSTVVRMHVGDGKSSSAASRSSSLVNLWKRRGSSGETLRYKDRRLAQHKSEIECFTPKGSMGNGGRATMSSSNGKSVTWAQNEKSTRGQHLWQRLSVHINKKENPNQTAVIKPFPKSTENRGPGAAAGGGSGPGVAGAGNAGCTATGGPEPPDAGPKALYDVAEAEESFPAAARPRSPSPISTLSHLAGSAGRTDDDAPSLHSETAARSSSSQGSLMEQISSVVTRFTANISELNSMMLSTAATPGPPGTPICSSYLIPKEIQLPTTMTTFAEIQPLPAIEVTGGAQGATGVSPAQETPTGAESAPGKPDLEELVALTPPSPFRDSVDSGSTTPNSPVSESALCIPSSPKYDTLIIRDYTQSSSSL
T3 sequence (P31421 whole entry): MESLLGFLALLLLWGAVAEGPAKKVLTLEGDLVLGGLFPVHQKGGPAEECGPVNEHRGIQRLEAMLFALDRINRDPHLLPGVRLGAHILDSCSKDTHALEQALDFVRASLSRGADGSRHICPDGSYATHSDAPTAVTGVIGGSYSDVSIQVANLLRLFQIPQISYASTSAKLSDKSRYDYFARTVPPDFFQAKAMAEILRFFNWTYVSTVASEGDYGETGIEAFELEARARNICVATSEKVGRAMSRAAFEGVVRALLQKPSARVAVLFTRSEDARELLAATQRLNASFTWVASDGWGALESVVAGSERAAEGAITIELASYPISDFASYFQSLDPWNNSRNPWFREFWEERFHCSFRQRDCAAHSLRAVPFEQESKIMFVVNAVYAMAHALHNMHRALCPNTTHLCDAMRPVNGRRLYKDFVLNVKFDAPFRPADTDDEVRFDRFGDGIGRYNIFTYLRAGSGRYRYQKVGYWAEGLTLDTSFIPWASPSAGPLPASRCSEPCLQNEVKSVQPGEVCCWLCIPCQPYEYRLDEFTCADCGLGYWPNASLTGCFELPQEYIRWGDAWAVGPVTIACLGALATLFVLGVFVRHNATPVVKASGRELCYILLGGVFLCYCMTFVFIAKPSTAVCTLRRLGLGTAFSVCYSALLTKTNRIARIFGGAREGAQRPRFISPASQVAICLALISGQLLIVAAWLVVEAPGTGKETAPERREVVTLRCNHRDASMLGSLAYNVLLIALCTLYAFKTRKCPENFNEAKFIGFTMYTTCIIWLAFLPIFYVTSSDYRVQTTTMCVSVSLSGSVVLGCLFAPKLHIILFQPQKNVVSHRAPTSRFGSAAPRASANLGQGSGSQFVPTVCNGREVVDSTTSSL
Metabotropic glutamate receptor 6, sequence (P35349 whole entry): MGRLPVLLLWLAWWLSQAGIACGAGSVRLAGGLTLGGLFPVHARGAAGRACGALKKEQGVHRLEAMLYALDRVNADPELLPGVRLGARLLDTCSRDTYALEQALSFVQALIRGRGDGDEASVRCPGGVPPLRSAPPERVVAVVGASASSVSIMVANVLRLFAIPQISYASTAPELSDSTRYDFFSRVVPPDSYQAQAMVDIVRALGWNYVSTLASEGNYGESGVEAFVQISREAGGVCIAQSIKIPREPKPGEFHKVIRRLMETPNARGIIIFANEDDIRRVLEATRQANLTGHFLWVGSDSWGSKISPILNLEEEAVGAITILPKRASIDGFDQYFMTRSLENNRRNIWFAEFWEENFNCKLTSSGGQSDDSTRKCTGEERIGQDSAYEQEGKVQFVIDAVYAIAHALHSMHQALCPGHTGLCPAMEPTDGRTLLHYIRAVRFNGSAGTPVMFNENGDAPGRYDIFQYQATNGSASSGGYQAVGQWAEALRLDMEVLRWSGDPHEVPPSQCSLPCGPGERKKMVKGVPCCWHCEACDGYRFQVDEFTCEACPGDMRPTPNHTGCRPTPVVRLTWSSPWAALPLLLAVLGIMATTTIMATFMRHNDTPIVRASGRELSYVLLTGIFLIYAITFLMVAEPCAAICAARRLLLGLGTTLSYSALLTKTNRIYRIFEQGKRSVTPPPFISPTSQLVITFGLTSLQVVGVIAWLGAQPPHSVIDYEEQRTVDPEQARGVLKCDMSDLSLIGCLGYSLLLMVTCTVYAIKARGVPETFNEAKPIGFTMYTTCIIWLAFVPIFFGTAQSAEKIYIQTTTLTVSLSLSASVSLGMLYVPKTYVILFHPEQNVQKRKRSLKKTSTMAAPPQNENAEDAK

Compound | EC50 [1] [µM] | EC50 [7] [µM] | EC50 [2] [µM] | other results
NC(CCP(=O)(O)O)C(=O)O (stereo not given) | 1 | – | – | –
N[C@@]1(C(=O)O)CC[C@@H](C(=O)O)C1 | 60 | – | 15 | –
N[C@@]1(C(=O)O)CN[C@@H](C(=O)O)C1 | 110 | 100 | 200 | EC50 [6]: 0.3 µM

Second part, led by results:

EC50 [1] [µM] | EC50 [7] [µM] | Compound | EC50 [2] [µM] | other results
1000 | – | O=C(N[C@@]1(C(=O)O)CN[C@@H](C(=O)O)C1)c1ccccc1 | – | EC50 [3]: Not Active; EC50 [4]: Not Active; EC50 [5]: Not Active
20 | > 1000 | N[C@]1(C(=O)O)C[C@H](C(=O)O)N(Cc2ccccc2)C1 | – | IC50 [6]: 200 µM; IC50 [2]: 600 µM
